Calls of active or inactive are those of the source.
What was measured:
[1] = Counterscreen for AddAB inhibitors: absorbance-based bacterial cell-based high throughput dose response assay for inhibitors of bacterial viability. [Related pubchem assays (depositor defined):AID435030, AID449728, AID449731, AID488942, AID488955, AID488956]; assay type: functional
HEK293 [2] = assay: cytotoxicity in HEK293T NF-kB-Luc cells, SAR follow-up, cytotoxicity control for NF-kB activator project, cell-based, resazurin fluorescence (AID 493251); assay type: functional; settings: Homo sapiens
[3] = HepG2 cell cytotoxicity, dose response, cytotoxicity control for Shn3 inhibitor project, CellTiter-Glo, cherry-picked (AID 624134); assay type: functional, cell-based
Jurkat = assay: SAR Analysis of small molecule inhibitors of T-cell specific antigen receptor-induced NF-kB activation in a Jurkat cell line using a luminescence assay - Set 2. [Related pubchem assays (depositor defined):AID435003, AID435012, AID465]; assay type: functional, cell-based; settings: Homo sapiens
Exodeoxyribonuclease V = molecular target: T1, Exodeoxyribonuclease V (Escherichia coli (strain K12), UniProt P04993+P07648+P08394); assay: E. coli RecBCD inhibitors, dose response, counter-screen for AddAB inhibitor project, absorbance, V66 E. coli, mutant T4 phage (AID 492957); assay type: functional, cell-based, Escherichia coli str. K-12 substr. MG1655
T1 sequence (P04993 whole entry): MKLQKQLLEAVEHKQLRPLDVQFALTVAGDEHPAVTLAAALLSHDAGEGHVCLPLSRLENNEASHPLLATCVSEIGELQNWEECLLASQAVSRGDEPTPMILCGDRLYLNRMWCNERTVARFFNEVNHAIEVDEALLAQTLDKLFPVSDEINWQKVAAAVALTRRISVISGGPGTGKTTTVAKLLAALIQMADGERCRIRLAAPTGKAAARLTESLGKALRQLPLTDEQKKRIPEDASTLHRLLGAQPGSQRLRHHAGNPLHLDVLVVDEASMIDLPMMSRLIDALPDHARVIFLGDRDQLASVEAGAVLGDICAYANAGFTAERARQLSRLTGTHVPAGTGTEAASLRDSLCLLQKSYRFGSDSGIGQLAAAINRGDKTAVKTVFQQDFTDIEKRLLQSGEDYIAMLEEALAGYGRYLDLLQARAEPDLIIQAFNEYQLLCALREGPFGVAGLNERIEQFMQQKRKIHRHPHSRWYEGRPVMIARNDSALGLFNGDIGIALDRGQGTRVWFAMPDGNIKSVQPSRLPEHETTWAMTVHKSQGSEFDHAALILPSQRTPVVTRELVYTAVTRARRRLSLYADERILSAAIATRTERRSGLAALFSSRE
T1 sequence (P07648 whole entry): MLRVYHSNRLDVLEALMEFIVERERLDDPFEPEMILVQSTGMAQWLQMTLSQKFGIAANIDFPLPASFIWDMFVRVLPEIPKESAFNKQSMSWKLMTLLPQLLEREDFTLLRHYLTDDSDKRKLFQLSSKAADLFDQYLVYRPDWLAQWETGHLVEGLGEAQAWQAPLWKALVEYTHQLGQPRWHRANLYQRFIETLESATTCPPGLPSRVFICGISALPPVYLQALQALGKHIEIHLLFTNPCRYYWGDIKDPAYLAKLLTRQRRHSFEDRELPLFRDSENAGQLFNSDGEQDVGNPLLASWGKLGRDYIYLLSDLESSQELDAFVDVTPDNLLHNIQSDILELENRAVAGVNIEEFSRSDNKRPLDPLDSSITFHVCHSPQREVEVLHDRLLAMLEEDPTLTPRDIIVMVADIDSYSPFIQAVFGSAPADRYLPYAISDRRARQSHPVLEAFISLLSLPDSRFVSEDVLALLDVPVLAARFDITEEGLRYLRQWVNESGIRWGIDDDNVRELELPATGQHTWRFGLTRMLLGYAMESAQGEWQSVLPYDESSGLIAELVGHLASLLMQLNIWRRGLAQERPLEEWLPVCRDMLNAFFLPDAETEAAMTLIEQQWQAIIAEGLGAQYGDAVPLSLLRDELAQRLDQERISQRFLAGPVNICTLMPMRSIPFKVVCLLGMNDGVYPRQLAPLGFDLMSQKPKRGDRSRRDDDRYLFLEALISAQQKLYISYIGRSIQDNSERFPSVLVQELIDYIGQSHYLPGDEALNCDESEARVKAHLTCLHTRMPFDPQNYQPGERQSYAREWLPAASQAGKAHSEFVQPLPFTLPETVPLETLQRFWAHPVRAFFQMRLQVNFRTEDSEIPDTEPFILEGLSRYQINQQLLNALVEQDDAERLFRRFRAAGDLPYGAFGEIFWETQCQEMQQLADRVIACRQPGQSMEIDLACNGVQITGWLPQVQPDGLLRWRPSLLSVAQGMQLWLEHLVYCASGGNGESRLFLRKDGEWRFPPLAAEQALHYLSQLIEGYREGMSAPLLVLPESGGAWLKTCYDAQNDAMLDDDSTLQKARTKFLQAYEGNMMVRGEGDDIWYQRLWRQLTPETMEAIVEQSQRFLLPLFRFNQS
T1 sequence (P08394 whole entry): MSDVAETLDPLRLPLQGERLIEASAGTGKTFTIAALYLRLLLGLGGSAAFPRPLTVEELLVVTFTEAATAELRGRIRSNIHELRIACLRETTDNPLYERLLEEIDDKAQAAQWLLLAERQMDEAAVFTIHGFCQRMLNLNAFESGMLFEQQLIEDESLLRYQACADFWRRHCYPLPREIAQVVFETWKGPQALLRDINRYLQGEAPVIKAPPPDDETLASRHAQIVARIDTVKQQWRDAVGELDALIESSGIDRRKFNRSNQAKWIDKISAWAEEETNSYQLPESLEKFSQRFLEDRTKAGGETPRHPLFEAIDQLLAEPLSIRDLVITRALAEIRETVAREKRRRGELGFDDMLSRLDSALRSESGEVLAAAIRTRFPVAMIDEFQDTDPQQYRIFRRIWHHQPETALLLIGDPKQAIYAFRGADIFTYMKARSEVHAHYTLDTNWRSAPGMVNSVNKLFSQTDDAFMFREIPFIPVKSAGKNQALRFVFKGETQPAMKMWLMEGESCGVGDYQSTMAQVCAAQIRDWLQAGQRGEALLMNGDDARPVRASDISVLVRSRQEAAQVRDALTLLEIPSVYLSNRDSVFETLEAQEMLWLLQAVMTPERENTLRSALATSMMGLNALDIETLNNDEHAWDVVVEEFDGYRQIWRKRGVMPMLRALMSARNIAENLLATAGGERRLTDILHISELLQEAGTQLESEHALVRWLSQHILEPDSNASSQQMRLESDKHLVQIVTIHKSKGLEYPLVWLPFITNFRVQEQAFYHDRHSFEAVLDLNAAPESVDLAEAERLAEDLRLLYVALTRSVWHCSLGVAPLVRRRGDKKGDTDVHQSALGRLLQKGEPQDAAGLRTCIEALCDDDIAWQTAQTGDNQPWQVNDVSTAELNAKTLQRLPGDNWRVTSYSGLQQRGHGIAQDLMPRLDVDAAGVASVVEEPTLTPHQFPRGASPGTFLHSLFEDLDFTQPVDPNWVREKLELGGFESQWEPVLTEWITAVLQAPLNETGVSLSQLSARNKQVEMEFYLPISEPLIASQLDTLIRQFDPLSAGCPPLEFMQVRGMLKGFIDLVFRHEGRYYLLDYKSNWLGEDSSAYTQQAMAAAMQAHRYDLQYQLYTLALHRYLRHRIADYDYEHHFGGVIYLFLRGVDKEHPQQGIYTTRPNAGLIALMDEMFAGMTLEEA

[4] = Shn3 3'UTR reporter inhibitors, dose response, cell-based, Clone20 osteoblasts, firefly luciferase, cherry-picked (AID 624132); assay type: functional;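 note: firefly luciferase luminescence from reporter carrying the Shn3 3'UTR in osteoblasts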
HEK293 [5] = assay: SAR Analysis of small molecule inhibitors of T-cell specific antigen receptor-induced NF-kB activation in a HEK-293T cell line using a luminescence assay - Set 2. [Related pubchem assays (depositor defined):AID435003, AID435012, AID489026]; assay type: functional, cell-based; settings: Homo sapiens
[6] = control 3'UTR Renilla luciferase suppression, dose response, counter-screen for Shn3 inhibitor project, cell-based, Clone20-Shn3RL, cherry-picked (AID 624133); assay type: functional
[7] = molecular target: T2, Oxysterols receptor LXR-beta (Homo sapiens, UniProt P55055); assay type: functional, cell-based;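 note: agonist activity at LXR measured by a cell-based luminescence readout across a dose range, run as a counterscreen for daf-12 agonists; HEK293 cells with Gal4-LXR fusion and GAL4-driven luciferase reporter; potency for activation of Gal4-LXR reporter so compounds are agonists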
T2 sequence (P55055 whole entry): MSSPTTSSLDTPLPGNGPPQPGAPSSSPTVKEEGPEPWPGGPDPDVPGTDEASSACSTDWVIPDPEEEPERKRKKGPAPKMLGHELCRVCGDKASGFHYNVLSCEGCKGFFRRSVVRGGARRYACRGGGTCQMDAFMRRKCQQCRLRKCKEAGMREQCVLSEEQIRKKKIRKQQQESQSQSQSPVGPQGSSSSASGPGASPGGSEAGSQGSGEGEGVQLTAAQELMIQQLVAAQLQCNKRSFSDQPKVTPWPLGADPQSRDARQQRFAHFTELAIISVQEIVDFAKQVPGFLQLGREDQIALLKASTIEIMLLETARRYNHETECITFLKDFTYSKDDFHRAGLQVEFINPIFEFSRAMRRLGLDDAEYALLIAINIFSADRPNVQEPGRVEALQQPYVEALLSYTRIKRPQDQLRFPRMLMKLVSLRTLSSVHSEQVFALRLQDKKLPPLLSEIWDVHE

[8] = molecular target: T3, Nuclear receptor subfamily 0 group B member 1 (Homo sapiens, UniProt P51843); assay: Luminescence-based cell-based high throughput dose response assay for inhibitors of the orphan nuclear receptor subfamily 0, group B, member 1 (DAX1; NR0B1). [Related pubchem assays (depositor defined):AID504766, AID504790]; assay type: functional
T3 sequence (P51843 whole entry): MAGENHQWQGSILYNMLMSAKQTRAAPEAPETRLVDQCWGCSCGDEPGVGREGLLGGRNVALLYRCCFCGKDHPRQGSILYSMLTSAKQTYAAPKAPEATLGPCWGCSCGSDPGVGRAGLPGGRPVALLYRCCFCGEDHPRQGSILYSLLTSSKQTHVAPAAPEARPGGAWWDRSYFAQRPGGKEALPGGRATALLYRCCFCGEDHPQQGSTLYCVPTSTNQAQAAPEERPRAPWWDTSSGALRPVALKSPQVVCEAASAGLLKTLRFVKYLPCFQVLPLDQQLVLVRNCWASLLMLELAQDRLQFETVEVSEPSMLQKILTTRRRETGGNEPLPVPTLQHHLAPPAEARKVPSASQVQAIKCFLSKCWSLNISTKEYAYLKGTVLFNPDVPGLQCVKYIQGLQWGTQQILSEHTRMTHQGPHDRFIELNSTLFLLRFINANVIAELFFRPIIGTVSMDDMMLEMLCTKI

HEK293 [9] = assay: cells; assay type: functional, cell-based; settings: Homo sapiens
[10] = Luminescence Cell-Based Dose Response HTS to Identify Activators of Luciferase Translation or Activity in H4 […] Cells. [Related pubchem assays: 1829 (Project Summary), 1814 (Primary HTS)]; assay type: functional
cells [11] = assay type: functional, cell-based
cells [12] = assay type: functional, cell-based; remark: listed apart in the source
[13] = Luminescence Cell-Based Dose Confirmation HTS to Identify Activators of 5'UTR Stem-Loop Driven Alpha-Synuclein mRNA Translation in H4 Neuroglioblastoma Cells. [Related pubchem assays: 1829 (Project Summary), 1814 (Primary HTS)]; assay type: functional
H4 = assay: Luminescence Cell-Based Dose Response HTS to Identify Activators of 5'UTR Stem-Loop Driven Prion Protein mRNA Translation in H4 Neuroglioblastoma Cells. [Related pubchem assays: 1829 (Project Summary), 1814 (Primary HTS)]; assay type: functional; settings: Homo sapiens

Structure (SMILES) | IC50 (HEK293 [2]) | IC50 (Jurkat) | IC50 (HEK293 [5]) | IC50 [8] | IC50 (HEK293 [9]) | further results
O=C(Nc1ccc2oc(-c3ccncc3)nc2c1)c1ccc([N+](=O)[O-])o1 | > 80 µM (inactive) | 55.5 µM (inactive) | 41.5 µM (inactive) | – | – | IC50 [1]: > 119 µM (inactive); AC50 [3]: > 70 µM (inactive); IC50 (Exodeoxyribonuclease V): > 119 µM (inactive); AC50 [4]: 18.6 µM (active); AC50 [6]: 20.7 µM (active)
Oc1[nH]c2ccccc2c1/C=N/c1ccccc1 | – | – | – | > 67.5 µM (inactive) | > 67.5 µM (inactive) | EC50 [7]: > 67.5 µM (inactive)
Cc1cc2nc(CSc3ccc(Cl)cc3)cc(O)n2n1 | – | – | – | > 67.6 µM (inactive) | > 67.6 µM (inactive) | –
Cc1cc(NC(=O)c2ccc([N+](=O)[O-])o2)cc(-c2nc3ccccc3o2)c1O | > 80 µM (inactive) | 3.42 µM (active) | > 80 µM (inactive) | – | – | –
O=C(Nc1ncccc1O)c1ccc(S(=O)(=O)Nc2ccccc2)cc1 | – | – | – | > 67.6 µM (inactive) | > 0.00338 µM (active) | EC50 [10]: 19.9 µM (active); EC50 (cells [11]): > 350 µM (not active); EC50 (cells [12]): 23.3 µM (active); EC50 [13]: 12.2 µM (active); EC50 (H4): 22.9 µM (active)

Reference: ChEMBL document CHEMBL1201862, “PubChem BioAssay data set” (2004)
